Measurements published in patent US6448027B1, “Method for specific measurement of acid phosphatase derived from osteoclasts” (FALCO biosystems Ltd., priority 1999, dated 2002).

Assays:
[1] = test system: Band 5b tartrate-resistant acid phosphatase; assay: Effects of other materials on Band 5b TrACP activity in serum of healthy subjects; assay type: biochemical, human; settings: for Band 5b TrACP activity (%): control activity taken as 100%, serum of healthy subjects; for Effect of addition on Band 5b tartrate-resistant acid phosphatase activity: summary in words of Table 1, 1-10 mmol/L
Description: (1) Formulation of Compositions
(a) A Composition Comprising Tartaric Acid and Heparin (Reaction Buffer Solution 1)
(b) A composition comprising tartaric acid, heparin and fluoride (reaction buffer solution 2)
(2) Measurement (an Example Using Conventional Automatic Analyzer, Cobas® Fara, Baxter Ltd.)
(§1) To a cuvette is added 150 µl of reaction buffer solution 1 or reaction buffer solution 2 and, after 20 seconds, 15 µl of sample (serum) is added. The mixture is incubated at 37° C. for 5 minutes and then 60 µl of the substrate solution is added to start the enzyme reaction (the reaction mixture is 15 times as much as the amount of the sample (=(150 μ1+15 μ1+60 μ1)/15 μ1). The change in absorbance at 340 nm is monitored at 20 seconds intervals for 5 minutes. The amount of change in absorbance per one minute (the amount of change in absorbance in the enzyme reaction per unit time) is obtained from a linear part of the change in absorbance. The amount of change in absorbance per one minute in blank is obtained by the same procedure as the above except for adding physical saline or purified water instead of the sample.
The activity of osteoclast-derived acid phosphatase located at Band 5b is obtained by subtracting the activity value obtained by using the composition comprising tartaric acid, heparin and fluoride of the reaction buffer solution 2 from the activity value obtained by using the composition comprising tartaric acid and the inhibitor to acid phosphatases located at Band 5 other than Band 5b (in Examples, heparin is used) of the reaction buffer solution 1. […] The concentration, formulation, amount and the like of the above composition are adjusted according to a particular kind of automatic analyzer and measurement (kind and concentration of the substrate and the like) used.
(§2) Activity (U/L)=[(amount of change in absorbance per unit time in enzyme reaction−amount of change in absorbance in blank)×liquid amount on enzyme reaction×10^6]÷[sample amount×molar absorbance coefficient×cell optical path length]

[2] = test system: Band 5b tartrate-resistant acid phosphatase; settings: read-out: Km value for DCAPP of Band 5b tartrate-resistant acid phosphatase activity; substrate DCAPP
Description: as §1, with “sample. […]” for “sample.”
as §2

[3] = test system: tartrate-resistant fluoride-sensitive acid phosphatases other than Band 5b; assay: TrFsACP activity of CM-Sepharose fractions of serum with heparin or polybrene in the reaction buffer; assay type: biochemical, human; settings: CM-Sepharose fractions of children's serum; FIG. 1
Description: Using CM-Sepharose, Band 5a and Band 5b tartrate-resistant acid phosphatase were separated and collected.
(§3) The CM-Sepharose was packed into glass tubing (0.9 cm i.d.; length, 60 cm) and washed with acetate buffer (10 mmol/L, pH 5.0). The serum sample (children's serum, 5 ml) was adjusted to pH 5.0 by adding acetic acid and the coagulated proteins were removed by centrifugation at 20,000×g for 15 minutes. The supernatant fraction was passed through the column at 0.5 ml/minute. The enzyme, which was retained on the column, was then eluted with a liner gradient of sodium chloride: 0 to 1 mol/L in elution buffer (299 ml, acetate buffer, 10 mmol/L, pH 5.0). The fractionated serum was subjected to the method described in the above general method to measure tartrate-resistant fluoride-sensitive acid phosphatase activity (the value obtained by subtracting the value obtained with measurement solution 2 from the value obtained with measurement solution 1). Acid phosphatase activity was measured similarly by using measurement solution added polybrene which was antagonist of heparin instead of heparin.
When polybrene was added to the reaction buffer, at least four peaks of tartrate-resistant fluoride-sensitive acid phosphatase activity were observed (FIG. 1, I, II, III and IV). But only one peak (IV) was observed when heparin was added to the reaction buffer. […]

serum = assay: Effect of heparin on serum acid phosphatase activity; assay type: biochemical, human; settings: FIG. 3
Description: Blood samples collected from 516 healthy subjects aged 5 to 79 years (210 males and 306 females) were coagulated at room temperature for 2 to 4 hours and centrifuged at 1,000×g at room temperature for 10 minutes. Serum thus separated was transferred into 1.5 ml tubes and stored at −80° C. until use.

[4] = biological target: T1, Band 5a tartrate-resistant acid phosphatase (Homo sapiens, UniProt P13686); assay: Effect of heparin on Band 5a tartrate-resistant acid phosphatase (CM-Sepharose peak III); assay type: biochemical
T1 construct: These fractions containing peak III and IV were used as Band 5a and Band 5b tartrate-resistant acid phosphatase, respectively; from tissue; host or cells: children's serum, CM-Sepharose cation-exchange fraction (peak III)
T1 sequence (P13686 22-325): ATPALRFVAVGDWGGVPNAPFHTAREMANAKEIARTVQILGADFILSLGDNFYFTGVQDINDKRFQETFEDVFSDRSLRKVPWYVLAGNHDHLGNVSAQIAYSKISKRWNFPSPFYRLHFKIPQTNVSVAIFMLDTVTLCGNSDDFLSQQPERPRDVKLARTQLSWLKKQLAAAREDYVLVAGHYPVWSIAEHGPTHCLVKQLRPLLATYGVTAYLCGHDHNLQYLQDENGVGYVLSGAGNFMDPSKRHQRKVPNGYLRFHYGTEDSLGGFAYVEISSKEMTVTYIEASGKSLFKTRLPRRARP
Description: as §3
These fractions containing peak III and IV were used as Band 5a and Band 5b tartrate-resistant acid phosphatase, respectively, in the following Examples. […]
Tartrate-resistant fluoride-sensitive acid phosphatase activity was measured using Band 5a and 5b tartrate-resistant acid phosphatases separated by CM-Sepharose to determine the effect of pH on activity. […]

bone extract = assay: Effect of heparin on bone extract acid phosphatase activity; assay type: biochemical; settings: FIG. 3; bovine tibia extract
Description: Bone extract was prepared according to the method described in Nakanishi, M., Yoh, K., Uchida, K., Maruo, S., Matuoka, A., Clin. Chem., 1998, 44, 221-225. Bovine tibia after removal of soft tissue was cut into small cubes. The marrow and blood were removed, pulverized and homogenized in a solution containing Triton x-100, potassium chloride, phenylmethylsulfonyl fluoride, benzamidine and aminocaproic acid. The extract was collected by centrifugation at 10,000×g for 20 minutes at 4° C. and stored at −80° C. until use.

[5] = compound 1 mmol/L in reaction buffer solution
[6] = compound 5 mmol/L in reaction buffer solution
[7] = compound 10 mmol/L in reaction buffer solution

Row | Band 5b TrACP activity (%) [1, 5] | Band 5b TrACP activity (%) [1, 6] | Band 5b TrACP activity (%) [1, 7] | Effect of addition on Band 5b tartrate-resistant acid phosphatase activity [1] | Effect of heparin on serum (serum) | Effect of heparin on Band 5a tartrate-resistant acid phosphatase ([4]; FIG. 3) | Band 5a tartrate-resistant acid phosphatase activity after addition of heparin ([4]; pH 6.6, 0.05% heparin in reaction mixture, FIG. 4) | Effect of heparin on bone extract (bone extract) | Compound | Km [2] | Effect of heparin on tartrate-resistant fluoride-sensitive acid phosphatases other than Band 5b [3]
1 | 95% | 96% | 93% | no effect | – | – | – | – | O=C(O)CN(CCN(CC(=O)O)CC(=O)O)CC(=O)O [EDTA] | – | –
2 | 93% | 69% | 57% | inhibited enzyme activity | – | – | – | – | O[C@H](CS)[C@H](O)CS (racemic) [Dithiothreitol] | – | –
3 | – | – | – | – | slightly inhibited | significantly inhibited | zero level | slightly inhibited | heparin | – | inhibits

The remaining lines, values behind:

Row | Compound | Band 5b TrACP activity (%) [1, 5] | Band 5b TrACP activity (%) [1, 6] | Band 5b TrACP activity (%) [1, 7] | Effect of addition on Band 5b tartrate-resistant acid phosphatase activity [1] | Effect of heparin on serum (serum) | Effect of heparin on Band 5a tartrate-resistant acid phosphatase ([4]; FIG. 3) | Band 5a tartrate-resistant acid phosphatase activity after addition of heparin ([4]; pH 6.6, 0.05% heparin in reaction mixture, FIG. 4) | Effect of heparin on bone extract (bone extract) | Km [2] | Effect of heparin on tartrate-resistant fluoride-sensitive acid phosphatases other than Band 5b [3]
4 | CC(=O)c1cc(Cl)c(OP(=O)(O)O)c(Cl)c1 [DCAPP, 2,6-dichloro-4-acetylphenyl phosphate] | – | – | – | – | – | – | – | – | 4.7 mM | –
5 | O=C1O[C@H]([C@@H](O)CO)C(O)=C1O [Ascorbic acid] | 97% | 103% | 103% | no effect | – | – | – | – | – | –
